Assay results: patent publication US20080027031A1, “Retinoids and Related Compounds for the Treatment of Neuroinflammatory Conditions, Diseases and Disorders” (KineMed, Inc., priority 2006, published 2008)
Like-named read-outs stand apart in the source and are kept apart here.

Experiments:
microglia [1] = experiment: Microglial proliferation in the EAE model of multiple sclerosis (2H2O labeling); type: in vivo, mouse; details: female C57BL/6 mice, MOG(35-55) immunization; isotretinoin 30 mg/kg/day i.p.; 7 days 2H2O labeling
Description: FIG. 3 depicts the inhibition of Microglial Proliferation in the experimental autoimmune encephalomyelitis (EAE) model of neuroinflammation. Female c57bl/6 mice were labeled with ^2H2O for 7 days and received either sham or EAE immunizations. EAE was induced by subcutaneous injection of 100 μg synthetic MOG(35-55) peptide emulsified in 0.1 ml complete Freund's adjuvant on day 0. Pertussis toxin (400 ng) was injected intravenously on days 0 and 2. Minocycline (45 mg/kg, i.p.) was dissolved in saline and injected twice a day for the first 3 days, and once a day for the rest of the study. Accutane (30 mg/kg, i.p.) was dissolved in DMSO and injected once a day for the duration of the study. Data represent mean±SD of 5 animals per group. * Indicates significant difference (p<0.0001) between sham and EAE groups treated with vehicle, # indicates significant difference (p<0.0001) between vehicle and drug treated EAE groups. […]
Analysis of cell turnover: GC/MS analysis was used to measure ^2H incorporation from ^2H2O into the deoxyribose moiety of purine deoxyribonucleotides during de novo DNA synthesis. Genomic DNA from microglia was isolated using a DNEasy tissue kit (Qiagen, Valencia, Calif.), and processed and analyzed by GC/MS. […]

EAE mice = experiment: Clinical scores for EAE symptoms in EAE induced by MOG peptide; type: in vivo, mouse
Description: Female C57BL/6 mice were immunized with MOG35-55 (EAE mice). All mice were labeled with 8% 2H2O for 1 week and received daily treatment with either vehicle or isotretinoin (10 mg/kg/day, ip). […] Data represent mean±SEM of 8 mice per group.
EAE was induced by subcutaneous injection of 100 μg synthetic MOG(35-55) peptide (QCB, Hopkinton, Mass.), emulsified in 0.1 ml complete Freund's adjuvant (CFA; incomplete Freund's adjuvant containing 4 mg/ml heat-killed M. tuberculosis H37Ra; both from Difco/Becton Dickinson), on day 0. Pertussis toxin (400 ng; List Biological) was injected intravenously on days 0 and 2. Sham-immunized animals were injected with CFA and PBS. Labeling with ^2H2O and treatment with isotretinoin (30 mg/kg/day) was initiated on the day of immunization, drug t.
Accordingly, the effect of isotretinoin was assessed on clinical symptoms of EAE during chronic treatment.

microglia [2] = details: for LPS-induced microglial proliferation: female C57BL/6 mice, LPS 1 mg/kg i.p. days 1, 3, 5, isotretinoin 40 mg/kg i.p. daily for 7 days, p<0.0001 vs LPS-treated animals
Description: Female c57bl/6 mice were labeled with ^2H2O for 7 days and injected with LPS (1 mg/kg, i.p.) on days 1, 3 and 5. Accutane (40 mg/kg, i.p.) was administered daily for the duration of the study. […] LPS (1 mg/kg) was given on days 1, 3, and 5 of treatment. Isotretinoin (40 mg/kg/day) and 8% ^2H2O label were given for 7 days commencing on Day 1.
Mice: All animal studies were carried out according to NIH guidelines for the care and use of laboratory animals and received prior approval by the KineMed internal animal care and use committee. 9-10 week old female C57/Bl6 mice (Taconic, Oxnard, Calif.) were housed in a climate controlled environment with a 12 hour light/dark cycle and were fed standard rodent chow and water ad libitum. For heavy water labeling, animals received a priming IP bolus of 35 ml/kg 0.9% NaCl in 99.9% ^2H2O and were maintained on 8% ^2H2O in drinking water until sacrifice.
To induce neuroinflammation, C57/Bl6 mice received 1 mg/kg E. coli LPS (L4391, Sigma Chemical, St Louis, Mo.; serotype 0111:B4; stock of 0.2 mgs/ml in PBS) IP on days 1, 3, and 5 of ^2H2O labeling and were sacrificed the morning of day 8. In order to minimize dilution of body water ^2H enrichment in animals due to the volume of injections, 5% ^2H2O solution was used as the vehicle for LPS. Isotretinoin (Sigma) was dissolved in DMSO and administered IP daily at 40 mg/kg, drug treatment was maintained throughout the labeling period.
Isolation and characterization of microglia: Anesthetized mice were transcardially perfused with ice-cold PBS (30 ml). Brains (without olfactory bulbs) were removed and kept in ice-cold PBS until processing. Tissue was passed once through a 1 mm mesh, and agitated in digestion buffer (12.5 ml of 150 mM NaCl, 5 mM KCl, 10 mM NaHCO3, 0.5 mM EDTA, 15 mM HEPES, 5 mM D-glucose, containing 0.5 mg/ml DNAse I [Roche] and 2.5 mg/ml trypsin [Sigma]) in a baffle flask for 25 minutes at 37° C. Trypsin was inactivated by the addition of 6.25 ml of media (1:1 Hams F10:DMEM, 10% FBS, 100,000 units/l penicillin G, 50 mg/l streptomycin sulfate, 2 mM L-glutamine). […]

Which “microglial proliferation in the EAE model” value (microglia [1]) does the source give for CC1=C(/C=C/C(C)=C/C=C/C(C)=C\C(=O)O)C(C)(C)CCC1 [isotretinoin, 13-cis-retinoic acid] here?
The value was “dramatically inhibited”.

And the “delay of onset of clinical symptoms of EAE” value (EAE mice; MOG35-55 immunized mice, isotretinoin 10 mg/kg/day ip from the day before immunization, untreated onset 14 days PI)?
The value was 1 week.

What about the “severity of clinical symptoms (clinical score) of EAE” value (EAE mice; between day 18 and day 25 PI vs vehicle-treated EAE mice, p<0.05, isotretinoin 10 mg/kg/day ip) of the same compound?
Its value is “reduced the severity of clinical symptoms significantly”.

And the LPS-induced microglial proliferation (microglia [2])?
Its LPS-induced microglial proliferation is “dramatically inhibited”.

And the LPS-induced microglial proliferation (microglia [2]; listed as isotrentinoin)?
The LPS-induced microglial proliferation was “Inhibits Microglial Proliferation”.

And the “suppression of proliferation of brain microglial cells under conditions of microglial stimulation” value (microglia [2]; overview statement, compared with clinically established inhibitors of neuroinflammation, including minocycline and glucocorticoids)?
Its value is “as potent”.
